This is an account of results in US20160367557A1, “HE[…] ACID DERIVATIVES WHICH ARE USEFUL IN THE TREATMENT, AMELIORATION OR PREVENTION OF A VIRAL DISEASE” (Savira pharmaceuticals GmbH, priority 2012, published 2016).

Data set [1] has as its target T1, influenza A virus (IAV) PA-Nter fragment (amino acids 1-209) (Influenza A virus, UniProt P31343).
T1 construct: PA-Nter fragment (amino acids 1-209); made in house
Put plainly: FRET endonuclease activity assay. To be noted: for IC50: calculated from initial reaction velocities (v0). The format is biochemical.

The subject of data set [2] is influenza A virus (IAV) A/Aichi/2/68 (H3N2). The data set can be described thus: Cytopathic effect (CPE) assay. The format is cell-based. To be noted: MDCK cells, 48 hrs. For orientation: Damage to the host cells serves as the signal in cytopathic effect assays.
Data set [3] relates to MDCK cells. Put plainly: Cytotoxicity in uninfected cells of the CPE assay. Type of data set: cell-based, canine. Particulars: at 50 μM. As to the method:
After removal of the culture medium and one washing step with PBS, virus and compound were added together to the cells. In the wells used for cytotoxicity determination (i.e. in the absence of viral infection), no virus suspension was added. Instead, infection medium was added. Each treatment was conducted in two replicates. After incubation at 37° C., 5% CO2 for 48 hrs, each well was observed microscopically for apparent cytotoxicity, precipitate formation, or other notable abnormalities. Then, cell viability was determined using CellTiter-Glo luminescent cell viability assay (Promega). The supernatant was removed carefully and 65 μl of the reconstituted reagent were added to each well and incubated with gentle shaking for 15 min at room temperature. Then, 60 μl of the solution was transferred to an opaque plate and luminescence (RLU) was measured using Synergy HT plate reader (Biotek).
Relative cell viability values of uninfected-treated versus uninfected-untreated cells were used to evaluate cytotoxicity of the compounds. Substances with a relative viability below 80% at the tested concentration were regarded as cytotoxic and retested at lower concentrations.

What is called IC50 is the midpoint of a concentration-inhibition curve. As usually defined, the melting point is the temperature of the solid-liquid transition.

`CCOC(=O)c1cn(Cc2ccccc2-c2ccccc2)c2sc(NS(=O)(=O)c3ccc(Cl)cc3F)nc2c1=O`: the “FRET activity in words” value in data set [1] is “inactive”. In data set [2] (Influenza A virus, H3N2), this compound registered an IC50 of 39 µM. In the case of `O=C(O)c1cn(Cc2ccccc2-c2ccccc2)c2sc(NS(=O)(=O)c3ccc(Cl)cc3)nc2c1=O`, the IC50 in data set [1] is 2.2 µM; in data set [2] (Influenza A virus, H3N2), 18 µM.

Turning to `Cc1[nH]c2ncnn2c(=O)c1CC(=O)O`, the “FRET activity in words” value in data set [1] is “inactive”. Take `O=C(O)c1cn(Cc2ccccc2-c2ccccc2)c2sc(NC3CCCC3)nc2c1=O`: the “CPE activity in words” value in data set [2] was “inactive”. Also, in data set [3], the “Cytotoxicity (relative viability below 80% regarded as cytotoxic)” value is listed as “toxic”. With `O=C(O)c1cn(Cc2ccccc2-c2ccccc2)c2nc(NC3CCCC3)sc2c1=O`, in data set [1], the “FRET activity in words” value is “inactive”. Consider `CSC1=NC2C(=O)C(C(=O)O)=CN(Cc3ccccc3-c3ccccc3)C2S1` (centres unmarked), for which the “CPE activity in words” value in data set [2] was “inactive”. In data set [3], the “Cytotoxicity (relative viability below 80% regarded as cytotoxic)” value is on record as “Toxic”. `Nc1cc2n(C(=O)C3(c4ccccc4)CCCC3)cc(C(=O)O)c(=O)n2n1` [drawing 232]: the “FRET activity in words” value in data set [1] is “inactive”. Regarding `O=C(O)c1cn(CCc2ccccc2)c2cc(C3CCCC3)nn2c1=O` [drawing 219], the “FRET % reduction of v0” value in data set [1] (@ 25 μM) was 26% @ 25 μM. Moreover, the “CPE activity in words” value in data set [2] is “inactive”. `O=C(O)c1cn(CCc2ccc(O)cc2)c2cc(C3CC3)nn2c1=O` gave a melting point of 265 to 270 °C. The same measure, in the same setting: the value for `CCOC(=O)c1c[nH]c2cc(C(=O)NC3CCN(Cc4ccccc4)CC3)nn2c1=O` was 264 to 266 °C. Take `CCOC(=O)c1c[nH]c2nc(NCc3cccc4ccccc34)nn2c1=O`: the melting point was in the range of 273 to 275 °C.

On to `CNC(=O)c1cn(Cc2ccccc2-c2ccccc2)c2sc(NCc3ccccc3)nc2c1=O`, for which the “FRET activity in words” value in data set [1] was “inactive”. Turning to `O=C(O)Cc1c[nH]c2cc(C(F)(F)F)nn2c1=O`, the melting point fell in the range of 320 to 324 °C.

On to `O=CNc1nc2c(=O)c(C(=O)O)cn(Cc3ccccc3-c3ccccc3)c2s1`, for which the IC50 in data set [1] was 47 µM. Moreover, the “CPE activity in words” value in data set [2] was “inactive”. In the case of `CCOC(=O)Cc1c[nH]c2cc(C3CC3)nn2c1=O`, the melting point is 280 to 283 °C.

`CCOC(=O)c1c[nH]c2nc(Nc3ccc(C)c(Cl)c3)nn2c1=O`: the melting point is above 340 °C.

`O=C(O)Cc1c[nH]c2nc(Nc3ccccc3)nn2c1=O` returned a melting point of 279 to 281 °C. `CCOC(=O)c1cn(Cc2ccccc2)c2cc(C(C)C)nn2c1=O` had a melting point of 135 to 140 °C. Still for that read-out and setting: under `CCOC(=O)Cc1c[nH]c2cc(C(F)(F)F)nn2c1=O` stands 290 to 293 °C; under `CC(C)c1cc2n(Cc3ccccc3)cc(C(=O)O)c(=O)n2n1`, 180 to 185 °C.

`CCOC(=O)c1c[nH]c2nc(NCc3ccccc3)nn2c1=O` came in with a melting point of 275 to 278 °C.

With `CCOC(=O)Cc1c[nH]c2nc(Nc3ccc(OC(C)C)cc3)nn2c1=O`, the melting point lay within 235 to 240 °C. `O=C(O)c1c[nH]c2cc(C(F)(F)F)nn2c1=O` had a melting point above 340 °C. Turning to `CCOC(=O)c1cn(Cc2ccccc2)c2cc(C3CC3)nn2c1=O`, the melting point lay in the range of 160 to 165 °C. Consider `CCOC(=O)c1cn(Cc2ccccc2-c2ccccc2)c2sc(SC)nc2c1=S`, for which, in data set [1], the “FRET activity in words” value was “inactive”. For the same compound, the inhibition at 50 µM in data set [2] (Influenza A virus, H3N2, @ 50 μM, read-out: CPE % reduction) was 35%. Regarding `O=C(O)c1cn(Cc2ccccc2-c2ccccc2)c2nc(NCc3ccccc3)sc2c1=O`, in data set [1], the “FRET activity in words” value is “inactive”.

As to `O=C(O)c1c[nH]c2ccnn2c1=O` [drawing 208], the inhibition at 5 µM in data set [1] (20 min, @ 5 μM, read-out: FRET % reduction of v0) worked out at 26%. Turning to `O=C(O)Cc1c[nH]c2cc(C3CC3)nn2c1=O`, the melting point was above 300 °C. Take `O=C(O)c1cn(Cc2ccccc2)c2cc(C3CCCC3)nn2c1=O`: the melting point lay within 213 to 215 °C. Take `CCOC(=O)c1cn(CCc2cccc(C(F)(F)F)c2)c2cc(C3CC3)nn2c1=O`: the melting point was in the range of 140 to 145 °C. On to `O=C(O)c1cn(Cc2ccccc2-c2ccccc2)c2sc(N3CCCCC3)nc2c1=O`, for which the “FRET activity in words” value in data set [1] was “inactive”.
